From patent publication US20100056627A1, “PHARMACEUTICAL COMPOSITIONS OF ALKYL GALLATES” (priority 2006, published 2010)
Converted amounts (≈) assume the structure as drawn. “And” between values parts separate entries of the source, which are not always exact repeats. Identical values can stand only once. Like-named read-outs stand apart in the source and are kept apart here.

What was measured:
MRSA COL strain = test: Time required for killing bacteria, octyl gallate and propyl gallate (FIG. 1); type: cell-based, Staphylococcus aureus; details: concomitant use of octyl gallate and propyl gallate
From the text: FIG. 1 is a graph showing shortening of the time required for killing bacteria by the concomitant use of octyl gallate and propyl gallate against MRSA COL strain.

[1] = test system: influenza virus in MDCK cells; type: cell-based
fungi (mold) = test: MIC of octyl gallate against fungi (mold) with trisodium citrate and propyl gallate; type: cell-based; details: for MIC: 24 h, read-out: Octyl gallate MIC, SDA (+0.9% trisodium citrate), 24 hr, triplicate
[2] = test system: gram-positive and gram-negative bacteria; test: MIC (minimum growth inhibition concentration), 2-fold serial agar plate dilution on Mueller Hinton II Agar, with concomitant alkyl gallate and salt; details: for MIC: 24 h
[3] = test system: clinical isolates MRSA and MSSA; details: for Recrystalized octyl gallate MIC: sodium ascorbate 0.5 mg/ml; for MIC50 / MIC: Staphylococcus aureus, MRSA|MSSA; for MIC50: read-out: MIC50, 24 h MIC, MRSA, trisodium citrate medium
clinical isolate MRSA = test: Oxacillin MIC against MRSA with concomitant octyl gallate and short-chain alkyl gallate (β-lactam sensitivity, ILSMR effect); type: cell-based, Staphylococcus aureus; details: clinical isolate MRSA

In the case of `CCCCCCCCOC(=O)c1cc(O)c(O)c(O)c1` [octyl gallate], the “time required for killing bacteria” value (MRSA COL strain) was “shortened to a large extent”, the “growth inhibition of influenza virus in MDCK cells” value [1] was “markedly reinforced” and the “growth of influenza virus in MDCK cells” value [1] was “inhibits the growth”. For the same molecule, the MIC (fungi (mold); phosphate buffer (1 mM), propyl gallate 0) was 20 µg/mL, the MIC (fungi (mold); propyl gallate 300 μg/mL) was 10 µg/mL and the MIC (fungi (mold); propyl gallate 1000 μg/mL) was 10 µg/mL. For the same molecule, the “antimicrobial activity against fungi (mold)” value (fungi (mold); […]) was “reinforced”, the MIC ([2]; read-out: Octyl gallate MIC, NaCl 4%, isoamyl gallate 100 μg/mL) was 0.98 µg/mL and the MIC ([2]; read-out: Recrystalized octyl gallate MIC, Dec. 24, 2007, MHA (+0.9% disodium hydrogen citrate), sodium ascorbate 0.5 mg/ml, propyl gallate 300 mg/L) was greater than 100 µg/mL. For the same molecule, the “change of MIC value of octyl gallate by isoamyl gallate” value ([2]; as the amount of NaCl added (2 to 4%) increases (Table 4)) was “markedly decreased”, the “effect on bacteria of concomitant use with propyl gallate” value ([2]; propyl gallate 300 mg/L, except for three strains of bacteria) was “completely killed” and the “MIC of octyl gallate lower than that of chlorhexidine gluconate, maximum” value ([2]; with isoamyl gallate at or below MIC and NaCl) was no more than 640 times. For the same molecule, the “Recrystalized octyl gallate MIC” value ([3]; MHA (+0.9% disodium hydrogen citrate), DDW, 24 h) was 0.625 µg/mL and 1.25 µg/mL, the “Recrystalized octyl gallate MIC” value ([3]; MHA (+0.9% trisodium citrate), propyl gallate 100 mg/L (with J-1216), 24 h) was 1.25 µg/mL and the “Recrystalized octyl gallate MIC” value ([3]; MHA (+0.9% trisodium citrate), propyl gallate 200 mg/L (with J-1216), 24 h) was 0.625 µg/mL and 1.25 µg/mL. The “octyl gallate concentration at which all strains were killed” value ([3]; MRSA (21 strains) and MSSA (8 strains), concomitant propyl gallate 50 mg/L, disodium hydrogen citrate) was 1.25 mg/L, the MIC50 ([3]; 24 h, J-1216 600 mg/L) was 20 µg/mL (≈ 70.8 µM) and the MIC50 ([3]; 24 h, propyl gallate 75 mg/L) was 10 µg/mL (≈ 35.4 µM). The MIC50 ([3]; 24 h, propyl gallate 100 mg/L) was 2.5 µg/mL (≈ 8.85 µM), the MIC50 ([3]; 24 h, propyl gallate 200 mg/L) was 2.5 µg/mL (≈ 8.85 µM) and the MIC ([3]; 24 h, read-out: MIC100, 24 h MIC, MRSA, disodium hydrogen citrate medium, DDW) was 2.5 µg/mL (≈ 8.85 µM). It also gave an MIC ([3]; 24 h, read-out: MIC100, 24 h MIC, MRSA, disodium hydrogen citrate medium, propyl gallate 50 mg/L) of 1.25 µg/mL (≈ 4.43 µM), an MIC ([3]; 24 h, read-out: MIC100, 24 h MIC, MRSA, trisodium citrate medium, J-1216 600 mg/L) of 50 µg/mL (≈ 177 µM) and an MIC ([3]; 24 h, read-out: MIC100, 24 h MIC, MRSA, trisodium citrate medium, propyl gallate 75 mg/L) of 10 µg/mL (≈ 35.4 µM). It also gave an MIC ([3]; 24 h, read-out: MIC100, 24 h MIC, MRSA, trisodium citrate medium, propyl gallate 100 mg/L) of 5 µg/mL (≈ 17.7 µM), an MIC ([3]; 24 h, read-out: MIC100, 24 h MIC, MRSA, trisodium citrate medium, propyl gallate 200 mg/L) of 5 µg/mL (≈ 17.7 µM) and an MIC ([3]; 24 h, read-out: Octyl gallate MIC, CAMHA, isoamyl gallate 50 μg/mL, 24 h) of no more than 0.0244 µg/mL. For the same molecule, the MIC ([3]; 24 h, read-out: Recrystalized octyl gallate MIC, MHA (+0.9% disodium hydrogen citrate), sodium ascorbate 0.5 mg/ml, DDW, 24 h) was 2.5 µg/mL (≈ 8.85 µM), the MIC ([3]; 24 h, read-out: Recrystalized octyl gallate MIC, MHA (+0.9% disodium hydrogen citrate), sodium ascorbate 0.5 mg/ml, propyl gallate 50 mg/L, 24 h) was 1.25 µg/mL (≈ 4.43 µM) and the MIC ([3]; 24 h, read-out: Recrystalized octyl gallate MIC, MHA (+0.9% trisodium citrate), sodium ascorbate 0.5 mg/ml, propyl gallate 100 mg/L (with J-1216), 24 h) was 2.5 µg/mL (≈ 8.85 µM). The MIC ([3]; 24 h, read-out: Recrystalized octyl gallate MIC, MHA (+0.9% trisodium citrate), sodium ascorbate 0.5 mg/ml, propyl gallate 200 mg/L (with J-1216), 24 h) was 2.5 µg/mL (≈ 8.85 µM), the MIC ([3]; 48 h, read-out: Octyl gallate MIC, Isoamyl G none, 48 h, strain = c6 of each row) was 31.2 µg/mL (≈ 111 µM) and the “MIC Range, 24 h MIC, MRSA” value ([3]; disodium hydrogen citrate medium, DDW) was 0.625 to 2.5 µg/mL. For the same molecule, the “MIC Range, 24 h MIC, MRSA” value ([3]; disodium hydrogen citrate medium, propyl gallate 50 mg/L) was 0.625 to 1.25 µg/mL, the “MIC Range, 24 h MIC, MRSA” value ([3]; trisodium citrate medium, J-1216 600 mg/L) was 20 to 50 µg/mL and the “MIC Range, 24 h MIC, MRSA” value ([3]; trisodium citrate medium, propyl gallate 75 mg/L) was 2.5 to 10 µg/mL. For the same molecule, the “MIC Range, 24 h MIC, MRSA” value ([3]; trisodium citrate medium, propyl gallate 100 mg/L) was 1.25 to 5 µg/mL, the “MIC Range, 24 h MIC, MRSA” value ([3]; trisodium citrate medium, propyl gallate 200 mg/L) was 0.0625 to 5 µg/mL and the “octyl gallate concentration with growth inhibitory effect in all the bacterial strains with only octyl gallate” value (clinical isolate MRSA) was 25 µg/mL. For the same molecule, the “Concentration of octyl gallate for concomitant use necessary for obtaining oxacillin MIC not higher than 2 μg/mL, C50” value (clinical isolate MRSA; Isoamyl gallate 6.25) was greater than 12.5 µg/mL, the “Concentration of octyl gallate for concomitant use necessary for obtaining oxacillin MIC not higher than 2 μg/mL, C100” value (clinical isolate MRSA; Isoamyl gallate 6.25) was greater than 12.5 µg/mL and the “Concentration of octyl gallate for concomitant use necessary for obtaining oxacillin MIC not higher than 2 μg/mL, C50” value (clinical isolate MRSA; Isoamyl gallate 12.5) was greater than 12.5 µg/mL. The “Concentration of octyl gallate for concomitant use necessary for obtaining oxacillin MIC not higher than 2 μg/mL, C100” value (clinical isolate MRSA; Isoamyl gallate 12.5) was greater than 12.5 µg/mL, the “Concentration of octyl gallate for concomitant use necessary for obtaining oxacillin MIC not higher than 2 μg/mL, C50” value (clinical isolate MRSA; Isoamyl gallate 25) was 1.56 µg/mL and the “Concentration of octyl gallate for concomitant use necessary for obtaining oxacillin MIC not higher than 2 μg/mL, C100” value (clinical isolate MRSA; Isoamyl gallate 25) was 1.56 µg/mL. For the same molecule, the “Concentration of octyl gallate for concomitant use necessary for obtaining oxacillin MIC not higher than 2 μg/mL, Range” value (clinical isolate MRSA; Isoamyl gallate 25) was 1.56 µg/mL, the “Concentration of octyl gallate for concomitant use necessary for obtaining oxacillin MIC not higher than 2 μg/mL, C50” value (clinical isolate MRSA; Propyl gallate 6.25) was greater than 12.5 µg/mL and the “Concentration of octyl gallate for concomitant use necessary for obtaining oxacillin MIC not higher than 2 μg/mL, C100” value (clinical isolate MRSA; Propyl gallate 6.25) was greater than 12.5 µg/mL. The “Concentration of octyl gallate for concomitant use necessary for obtaining oxacillin MIC not higher than 2 μg/mL, C50” value (clinical isolate MRSA; Propyl gallate 12.5) was greater than 12.5 µg/mL.
